Experimental data published in patent publication US4579859A, “Vasodilating trinitratoalkyl esters of 2-cyano-1,4-dihydropyridines” (Fujisawa Pharmaceutical Co., Ltd., priority 1983, dated 1986).
≈ marks a conversion by molar mass, not a printed value. Read-outs that look alike come from different tables or passages of the source.

System: isolated coronary artery
Assay: Effect on isolated coronary artery (relaxation of KF-contracted spiral strips; papaverine 10^-4 M = 100%)
Parameters: species or system dogs
Settings: Canis lupus familiaris, read-out: ED50 values
Protocol: The large coronary arteries, 2.0 mm in outside diameter were removed from pentobarbital-anesthetized dogs. Spiral strips approximately 15 mm in length were cut from the large arteries, and suspended in an organ bath containing calcium-free-Tyrode's solution with EGTA 0.2 mM at 37° C., aerated with a gas mixture of 95% oxygen and 5% carbon dioxide. The tonus of the strips was recorded on a polygraph with a force-displacement transducer. After the initial resting tension was adjusted to 1.0 g for the large artery, potassium fluoride 10 mM was added to the organ bath to increase the tonus of the large arterial strips to 1.4-1.6 g.
The cumulative concentrations of the test compound were then added, and finally paraverine 10^-4 M was given to determine maximum relaxation. ED50 values were calculated by interpolation from the mean cumulative dose-activity curves (effect of papaverine 10^-4 M=100%).

Structure (SMILES)	EC50 [µg/mL]	EC50 (isolated dog large coronary artery strips, calcium-free Tyrode's solution with EGTA 0.2 mM, 37° C., tonus by potassium fluoride 10 mM, cumulative concentrations, papaverine 10^-4 M = 100%) [µg/mL]
COC(=O)C1=C(C#N)NC(C)=C(C(=O)OCC(CO[N+](=O)[O-])(CO[N+](=O)[O-])CO[N+](=O)[O-])C1c1cccc([N+](=O)[O-])c1 (stereo not drawn) [Compound B, 3-Nitrooxy-2,2-bis(nitrooxymethyl)propyl ester of 6-cyano-5-methoxycarbonyl-2-methyl-4-(3-nitrophenyl)-1,4-dihydropyridine-3-carboxylic acid]	0.17 (≈ 0.285 µM)	–
CCOC(=O)C1=C(C)NC(C)=C(C(=O)OCC(CO[N+](=O)[O-])(CO[N+](=O)[O-])CO[N+](=O)[O-])C1c1cccc(Cl)c1Cl (stereo not drawn) [Compound A, 3-Nitrooxy-2,2-bis(nitrooxymethyl)propyl ester of 4-(2,3-dichlorophenyl)-5-ethoxycarbonyl-2,6-dimethyl-1,4-dihydropyridine-3-carboxylic acid]	0.97 (≈ 1.56 µM)	–
COC(=O)C1=C(C)NC(C)=C(C(=O)OC)C1c1ccccc1[N+](=O)[O-] [Nifedipine, Dimethyl esters of 2,6-dimethyl-4-(2-nitrophenyl)-3,5-dicarboxylic acid, reference compound]	–	> 1
